In PubChem BioAssay AID2060882 (Molecular Pharmacology Branch, DTP, NCI, 2025):
pIC50: −log10 of the molar value.

Tested on: 898857-211-R-J1-PDC complex spheroids, growth % test/control
Experiment: Anticancer human tumor 898857-211-R-J1-PDC patient-derived melanoma cell line growth inhibition [RAS]
Conditions: for pIC50: curve of first compound; for viability, T/C: stronger effect = lower value
Method in brief: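 Multi-cell-type spheroids: tumor cells plus HUVEC endothelial cells and mesenchymal stem cells. RAS-pathway inhibitors were combined with targeted agents, each dosed in half-log steps down from clinical Cmax, or from 10 microM when Cmax was unknown.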

[1] = second compound 0.0316 µM, first compound 0.0316 µM
[2] = second compound 0.0316 µM, first compound 0.1 µM
[3] = second compound 0.0316 µM, first compound 0.316 µM
[4] = second compound 0.0316 µM, first compound 1 µM
[5] = second compound 0.0316 µM, first compound 3.16 µM
[6] = second compound 0.0316 µM, first compound 10 µM
[7] = second compound 0.1 µM, first compound 0.0316 µM
[8] = second compound 0.1 µM, first compound 0.1 µM
[9] = second compound 0.1 µM, first compound 0.316 µM
[10] = second compound 0.1 µM, first compound 1 µM
[11] = second compound 0.1 µM, first compound 3.16 µM
[12] = second compound 0.1 µM, first compound 10 µM
[13] = second compound 0.316 µM, first compound 0.0316 µM
[14] = second compound 0.316 µM, first compound 0.1 µM
[15] = second compound 0.316 µM, first compound 0.316 µM
[16] = second compound 0.316 µM, first compound 1 µM
[17] = second compound 0.316 µM, first compound 3.16 µM
[18] = second compound 0.316 µM, first compound 10 µM
[19] = second compound 1 µM, first compound 0.0316 µM
[20] = second compound 1 µM, first compound 0.1 µM
[21] = second compound 1 µM, first compound 0.316 µM
[22] = second compound 1 µM, first compound 1 µM
[23] = second compound 1 µM, first compound 3.16 µM
[24] = second compound 1 µM, first compound 10 µM
[25] = second compound 3.16 µM, first compound 0.0316 µM
[26] = second compound 3.16 µM, first compound 0.1 µM
[27] = second compound 3.16 µM, first compound 0.316 µM
[28] = second compound 3.16 µM, first compound 1 µM
[29] = second compound 3.16 µM, first compound 3.16 µM
[30] = second compound 3.16 µM, first compound 10 µM
[31] = second compound 10 µM, first compound 0.0316 µM
[32] = second compound 10 µM, first compound 0.1 µM
[33] = second compound 10 µM, first compound 0.316 µM
[34] = second compound 10 µM, first compound 1 µM
[35] = second compound 10 µM, first compound 3.16 µM
[36] = second compound 10 µM, first compound 10 µM
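Note: spheroids exposed to compound for seven days before readout.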
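Throughout, for viability, T/C: 100% = DMSO vehicle control wells.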

CC(=O)OC12COC1CC(O)C1(C)C(=O)C(O)C3=C(C)C(OC(=O)C(O)C(NC(=O)OC(C)(C)C)c4ccccc4)CC(O)(C(OC(=O)c4ccccc4)C21)C3(C)C (stereo not drawn) + C#Cc1c(F)ccc2cc(O)cc(-c3ncc4c(N5CC6CCC(C5)N6)nc(OCC56CCCN5CC(F)C6)nc4c3F)c12
pIC50 (second compound 0.0316 µM): > 7.50 | pIC50 (second compound 0.1 µM): > 7.50 | pIC50 (second compound 0.316 µM): > 7.50 | pIC50 (second compound 1 µM): > 7.50 | pIC50 (second compound 3.16 µM): > 7.50 | pIC50 (second compound 10 µM): > 7.50 | viability, T/C [1]: 12% | viability, T/C [2]: 12.8% | viability, T/C [3]: 12.1% | viability, T/C [4]: 16% | viability, T/C [5]: 26.6% | viability, T/C [6]: 27.4% | viability, T/C [7]: 13% | viability, T/C [8]: 12.1% | viability, T/C [9]: 14.1% | viability, T/C [10]: 17.1% | viability, T/C [11]: 25.5% | viability, T/C [12]: 21.1% | viability, T/C [13]: 16.4% | viability, T/C [14]: 15.8% | viability, T/C [15]: 12.1% | viability, T/C [16]: 17.7% | viability, T/C [17]: 25.2% | viability, T/C [18]: 21.3% | viability, T/C [19]: 14.2% | viability, T/C [20]: 12.7% | viability, T/C [21]: 12.8% | viability, T/C [22]: 16.5% | viability, T/C [23]: 15.7% | viability, T/C [24]: 24.7% | viability, T/C [25]: 13.3% | viability, T/C [26]: 16.7% | viability, T/C [27]: 16.7% | viability, T/C [28]: 20.4% | viability, T/C [29]: 24.6% | viability, T/C [30]: 27.6% | viability, T/C [31]: 7.03% | viability, T/C [32]: 9% | viability, T/C [33]: 5.98% | viability, T/C [34]: 9.12% | viability, T/C [35]: 7.68% | viability, T/C [36]: 7.34%

Cc1nc(N2CCC3(CC2)COC(C)C3N)c(CO)nc1Sc1ccnc(N)c1Cl (stereo not drawn) + C#Cc1c(F)ccc2cc(O)cc(-c3ncc4c(N5CC6CCC(C5)N6)nc(OCC56CCCN5CC(F)C6)nc4c3F)c12
pIC50 (second compound 0.0316 µM): < 5.00 | pIC50 (second compound 0.1 µM): < 5.00 | pIC50 (second compound 0.316 µM): < 5.00 | pIC50 (second compound 1 µM): < 5.00 | pIC50 (second compound 3.16 µM): < 5.00 | pIC50 (second compound 10 µM): > 7.50 | viability, T/C [1]: 117% | viability, T/C [2]: 91.8% | viability, T/C [3]: 100% | viability, T/C [4]: 97.3% | viability, T/C [5]: 89.8% | viability, T/C [6]: 88.3% | viability, T/C [7]: 103% | viability, T/C [8]: 96.6% | viability, T/C [9]: 96.2% | viability, T/C [10]: 87.1% | viability, T/C [11]: 97.2% | viability, T/C [12]: 86.3% | viability, T/C [13]: 101% | viability, T/C [14]: 102% | viability, T/C [15]: 102% | viability, T/C [16]: 98.2% | viability, T/C [17]: 103% | viability, T/C [18]: 99% | viability, T/C [19]: 104% | viability, T/C [20]: 108% | viability, T/C [21]: 107% | viability, T/C [22]: 104% | viability, T/C [23]: 96.6% | viability, T/C [24]: 108% | viability, T/C [25]: 96.8% | viability, T/C [26]: 108% | viability, T/C [27]: 86.3% | viability, T/C [28]: 106% | viability, T/C [29]: 103% | viability, T/C [30]: 90.8% | viability, T/C [31]: 37.6% | viability, T/C [32]: 45.1% | viability, T/C [33]: 49% | viability, T/C [34]: 52.2% | viability, T/C [35]: 38.2% | viability, T/C [36]: 15.8%

NC1c2ccccc2OC12CCN(c1cnc3c(N4CCCc5ncccc54)n[nH]c3n1)CC2 (stereo not drawn) + C#Cc1c(F)ccc2cc(O)cc(-c3ncc4c(N5CC6CCC(C5)N6)nc(OCC56CCCN5CC(F)C6)nc4c3F)c12
pIC50 (second compound 0.0316 µM): < 5.00 | pIC50 (second compound 0.1 µM): < 5.00 | pIC50 (second compound 0.316 µM): < 5.00 | pIC50 (second compound 1 µM): < 5.00 | pIC50 (second compound 3.16 µM): < 5.00 | pIC50 (second compound 10 µM): 7.45 | viability, T/C [1]: 95.6% | viability, T/C [2]: 90.5% | viability, T/C [3]: 90.5% | viability, T/C [4]: 88.5% | viability, T/C [5]: 91.5% | viability, T/C [6]: 74.9% | viability, T/C [7]: 91.8% | viability, T/C [8]: 89.3% | viability, T/C [9]: 103% | viability, T/C [10]: 91.7% | viability, T/C [11]: 87.3% | viability, T/C [12]: 74.4% | viability, T/C [13]: 99.5% | viability, T/C [14]: 98% | viability, T/C [15]: 94% | viability, T/C [16]: 88.1% | viability, T/C [17]: 88.7% | viability, T/C [18]: 77.1% | viability, T/C [19]: 109% | viability, T/C [20]: 105% | viability, T/C [21]: 100% | viability, T/C [22]: 91.5% | viability, T/C [23]: 103% | viability, T/C [24]: 76% | viability, T/C [25]: 102% | viability, T/C [26]: 93.7% | viability, T/C [27]: 109% | viability, T/C [28]: 99.5% | viability, T/C [29]: 95.9% | viability, T/C [30]: 50.4% | viability, T/C [31]: 49% | viability, T/C [32]: 48% | viability, T/C [33]: 25.5% | viability, T/C [34]: 22.5% | viability, T/C [35]: 9.18% | viability, T/C [36]: 2.12%

Nc1ccn(C2OC(CO)C(O)C2(F)F)c(=O)n1 (stereo not drawn) + C#Cc1c(F)ccc2cc(O)cc(-c3ncc4c(N5CC6CCC(C5)N6)nc(OCC56CCCN5CC(F)C6)nc4c3F)c12
pIC50 (second compound 0.0316 µM): 8.14 | pIC50 (second compound 0.1 µM): 8.12 | pIC50 (second compound 0.316 µM): 8.10 | pIC50 (second compound 1 µM): 8.15 | pIC50 (second compound 3.16 µM): 8.14 | pIC50 (second compound 10 µM): > 8.50 | viability, T/C (second compound 0.0316 µM, first compound 0.00316 µM): 105% | viability, T/C (second compound 0.0316 µM, first compound 0.01 µM): 29.7% | viability, T/C [1]: 6.72% | viability, T/C [2]: 5% | viability, T/C [3]: 5.45% | viability, T/C [4]: 5.38% | viability, T/C (second compound 0.1 µM, first compound 0.00316 µM): 92.7% | viability, T/C (second compound 0.1 µM, first compound 0.01 µM): 36% | viability, T/C [7]: 7.32% | viability, T/C [8]: 5.55% | viability, T/C [9]: 5.77% | viability, T/C [10]: 5.83% | viability, T/C (second compound 0.316 µM, first compound 0.00316 µM): 97.4% | viability, T/C (second compound 0.316 µM, first compound 0.01 µM): 37.7% | viability, T/C [13]: 7.43% | viability, T/C [14]: 4.86% | viability, T/C [15]: 5.48% | viability, T/C [16]: 5.75% | viability, T/C (second compound 1 µM, first compound 0.00316 µM): 91.7% | viability, T/C (second compound 1 µM, first compound 0.01 µM): 32.4% | viability, T/C [19]: 8.35% | viability, T/C [20]: 5.57% | viability, T/C [21]: 4.9% | viability, T/C [22]: 5.48% | viability, T/C (second compound 3.16 µM, first compound 0.00316 µM): 99% | viability, T/C (second compound 3.16 µM, first compound 0.01 µM): 30.7% | viability, T/C [25]: 7.65% | viability, T/C [26]: 6.3% | viability, T/C [27]: 5.81% | viability, T/C [28]: 5.63% | viability, T/C (second compound 10 µM, first compound 0.00316 µM): 46.4% | viability, T/C (second compound 10 µM, first compound 0.01 µM): 25.8% | viability, T/C [31]: 7.48% | viability, T/C [32]: 6.16% | viability, T/C [33]: 6.42% | viability, T/C [34]: 5.33%
